This note sets out measurements from ChEMBL document CHEMBL1121431, “Preparation and biological evaluation of 2-azaergolines” (1980).

Common to all, as to type: functional
For assay [1], the system named is Mus musculus. Kind of assay: Percentage inhibition of jumping was measured at 10 mg/kg dose.
For assay [2], the system named is Mus musculus. Description: Total jumps of mice was measured at 3 mg/kg dose.
The test system of assay [3] is Mus musculus. Kind of assay: Mean jumps/mouse was measured at 10 mg/kg dose.
Assay [4] deals with Mus musculus. Kind of assay: Percentage inhibition of jumping was measured at 3 mg/kg dose.
Assay [5] deals with Mus musculus. Kind of assay: Mean jumps/mouse was measured at 3 mg/kg dose.
For assay [6], the system named is Mus musculus. Kind of assay: Total jumps of mice was measured at 10 mg/kg dose.

Turning to `CSCC1CC2c3cccc4[nH]nc(c34)CC2N(C)C1` (stereo unspecified), testing at 10 mg/kg in assay [1] gave an inhibition in vivo of 49.6%. For the same compound, the Activity in assay [2] is 5113; in assay [3], 508; in assay [5] it was 426; in assay [6], 6096. Also, the inhibition in vivo at 3 mg/kg in assay [4] was 47.9%.
